Reference: PubChem BioAssay (NCI)
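96-well plates; 48 h exposure; 5 concentrations. Endpoints by linear interpolation between flanking doses. Not reached: highest tested concentration assigned. GI50 = concentration required for 50% inhibition of growth. TGI: total growth inhibition.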

Key:
Assay in all cases: NCI-60 cell line screen, 48 h
[1] = test system: 786-0 renal
[2] = test system: A498 renal
[3] = test system: A549 NSCLC
[4] = test system: ACHN renal
[5] = test system: BT-549 breast
[6] = test system: CAKI-1 renal
[7] = test system: CCRF-CEM leukemia
[8] = test system: COLO 205 colon
[9] = test system: DU-145 prostate
[10] = test system: EKVX NSCLC
[11] = test system: HCC-2998 colon
[12] = test system: HCT-116 colon
[13] = test system: HCT-15 colon
[14] = test system: HL-60(TB) leukemia
[15] = test system: HOP-62 NSCLC
[16] = test system: HOP-92 NSCLC
[17] = test system: HS 578T breast
[18] = test system: HT29 colon
[19] = test system: IGROV1 ovarian
[20] = test system: K-562 leukemia
[21] = test system: KM12 colon
[22] = test system: M14 melanoma
[23] = test system: MALME-3M melanoma
[24] = test system: MCF7 breast
[25] = test system: MDA-MB-231 breast
[26] = test system: MDA-MB-435
[27] = test system: MOLT-4 leukemia
[28] = test system: NCI-H226 lung

Cc1ccc(-c2nnc(SCc3ccc(O)c4ncccc34)o2)cc1
GI50 [1]: 1.61 µM | TGI [1]: 6.81 µM | GI50 [2]: 1.08 µM | TGI [2]: 13.6 µM | GI50 [3]: 1.95 µM | TGI [3]: > 100 µM | GI50 [4]: 0.649 µM | TGI [4]: 2.32 µM | GI50 [5]: 1.06 µM | TGI [5]: > 100 µM | GI50 [6]: 1.8 µM | TGI [6]: 7.72 µM | GI50 [7]: 0.518 µM | TGI [7]: > 100 µM | GI50 [8]: 8.41 µM | TGI [8]: > 100 µM | GI50 [9]: 1.46 µM | TGI [9]: > 100 µM | GI50 [10]: 1.73 µM | TGI [10]: 9.86 µM | GI50 [11]: 0.933 µM | TGI [11]: > 100 µM | GI50 [12]: 0.537 µM | TGI [12]: > 100 µM | GI50 [13]: 0.492 µM | TGI [13]: > 100 µM | GI50 [14]: 0.52 µM | TGI [14]: 10.2 µM | GI50 [15]: 1.06 µM | TGI [15]: 3.83 µM | GI50 [16]: 0.435 µM | TGI [16]: 4.08 µM | GI50 [17]: 0.57 µM | TGI [17]: > 100 µM | GI50 [18]: 6.43 µM | TGI [18]: > 100 µM | GI50 [19]: 1.55 µM | TGI [19]: 9.86 µM | GI50 [20]: 1.14 µM | TGI [20]: 66.3 µM | GI50 [21]: 1.91 µM | TGI [21]: > 100 µM | GI50 [22]: 0.816 µM | TGI [22]: 5.49 µM | GI50 [23]: 1.96 µM | TGI [23]: 8.23 µM | GI50 [24]: 0.388 µM | TGI [24]: > 100 µM | GI50 [25]: 2.12 µM | TGI [25]: 27.5 µM | GI50 [26]: 0.5 µM | TGI [26]: > 100 µM | GI50 [27]: 0.877 µM | TGI [27]: > 100 µM | GI50 [28]: 2.42 µM
